Key:
Format in all cases: cell-based
SMARCA2 [1] = molecular target: T1, SMARCA2 (Homo sapiens, UniProt P51531); test: SMARCA2 Western blot degradation in MV4-11 cells; parameters: SMARCA2/SMARCA4 protein degradation selectivity in MV4-11 cells; endogenous in cells; host or cells: MV4-11; details: for Dmax: MV4-11, MV4-11 cells, read-out: SMARCA2 MSD MV411 degradation 24 h: average Dmax %; for Dmax / DC50 / SMARCA2 MSD MV411 degradation 24 h: average Dmax %: 24 h; for DC50 / Selectivity in MV411 / SMARCA2 MSD MV411 degradation 24 h: average Dmax %: MV4-11 cells; for DC50: read-out: SMARCA2 MSD MV411 degradation 24 h: Mean external-Abs DC50; for Selectivity in MV411: SMARCA2/4 selectivity
SMARCA2 [2] = molecular target: T1, SMARCA2; test: MSD SMARCA2 degradation in A549 cell line; details: for Dmax: A549, A549 cells; for Dmax / DC50: 24 h; for DC50 / SMARCA2 MSD A549 degradation 24 h: Average Dmax %: A549 cells; for DC50: read-out: SMARCA2 MSD A549 degradation 24 h: Average external-Abs DC50
Method in brief: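 SMARCA2 protein remaining after 24 h exposure of A549 cells (top concentration 1000 nM, 3-fold dilutions) was measured by MSD electrochemiluminescence immunoassay of cell lysates. Results are given as binned DC50 and maximal degradation (Dmax) codes.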

SMARCA4 = molecular target: T2, SMARCA4 (Homo sapiens, UniProt P51532); test: SMARCA4 Western blot degradation in MV4-11 cells; details: for Dmax: MV4-11, MV4-11 cells, read-out: SMARCA4 MSD MV411 degradation 24 h: average Dmax %; for Dmax / DC50: 24 h; for DC50 / SMARCA4 MSD MV411 degradation 24 h: average Dmax %: MV4-11 cells; for DC50: read-out: SMARCA4 MSD MV411 degradation 24 h: Mean external-Abs DC50
T2 construct: SMARCA2/SMARCA4 protein degradation selectivity in MV4-11 cells; endogenous in cells; host or cells: MV4-11
Method in brief: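 Fluorescent LI-COR imaging of Western blots quantified SMARCA2 and SMARCA4 protein remaining in MV4-11 cells after 24 h of compound treatment. β-actin was the loading control, and DC50, Dmax and SMARCA2/4 selectivity are given as letter-coded ranges.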

T2 sequence (P51532 whole entry): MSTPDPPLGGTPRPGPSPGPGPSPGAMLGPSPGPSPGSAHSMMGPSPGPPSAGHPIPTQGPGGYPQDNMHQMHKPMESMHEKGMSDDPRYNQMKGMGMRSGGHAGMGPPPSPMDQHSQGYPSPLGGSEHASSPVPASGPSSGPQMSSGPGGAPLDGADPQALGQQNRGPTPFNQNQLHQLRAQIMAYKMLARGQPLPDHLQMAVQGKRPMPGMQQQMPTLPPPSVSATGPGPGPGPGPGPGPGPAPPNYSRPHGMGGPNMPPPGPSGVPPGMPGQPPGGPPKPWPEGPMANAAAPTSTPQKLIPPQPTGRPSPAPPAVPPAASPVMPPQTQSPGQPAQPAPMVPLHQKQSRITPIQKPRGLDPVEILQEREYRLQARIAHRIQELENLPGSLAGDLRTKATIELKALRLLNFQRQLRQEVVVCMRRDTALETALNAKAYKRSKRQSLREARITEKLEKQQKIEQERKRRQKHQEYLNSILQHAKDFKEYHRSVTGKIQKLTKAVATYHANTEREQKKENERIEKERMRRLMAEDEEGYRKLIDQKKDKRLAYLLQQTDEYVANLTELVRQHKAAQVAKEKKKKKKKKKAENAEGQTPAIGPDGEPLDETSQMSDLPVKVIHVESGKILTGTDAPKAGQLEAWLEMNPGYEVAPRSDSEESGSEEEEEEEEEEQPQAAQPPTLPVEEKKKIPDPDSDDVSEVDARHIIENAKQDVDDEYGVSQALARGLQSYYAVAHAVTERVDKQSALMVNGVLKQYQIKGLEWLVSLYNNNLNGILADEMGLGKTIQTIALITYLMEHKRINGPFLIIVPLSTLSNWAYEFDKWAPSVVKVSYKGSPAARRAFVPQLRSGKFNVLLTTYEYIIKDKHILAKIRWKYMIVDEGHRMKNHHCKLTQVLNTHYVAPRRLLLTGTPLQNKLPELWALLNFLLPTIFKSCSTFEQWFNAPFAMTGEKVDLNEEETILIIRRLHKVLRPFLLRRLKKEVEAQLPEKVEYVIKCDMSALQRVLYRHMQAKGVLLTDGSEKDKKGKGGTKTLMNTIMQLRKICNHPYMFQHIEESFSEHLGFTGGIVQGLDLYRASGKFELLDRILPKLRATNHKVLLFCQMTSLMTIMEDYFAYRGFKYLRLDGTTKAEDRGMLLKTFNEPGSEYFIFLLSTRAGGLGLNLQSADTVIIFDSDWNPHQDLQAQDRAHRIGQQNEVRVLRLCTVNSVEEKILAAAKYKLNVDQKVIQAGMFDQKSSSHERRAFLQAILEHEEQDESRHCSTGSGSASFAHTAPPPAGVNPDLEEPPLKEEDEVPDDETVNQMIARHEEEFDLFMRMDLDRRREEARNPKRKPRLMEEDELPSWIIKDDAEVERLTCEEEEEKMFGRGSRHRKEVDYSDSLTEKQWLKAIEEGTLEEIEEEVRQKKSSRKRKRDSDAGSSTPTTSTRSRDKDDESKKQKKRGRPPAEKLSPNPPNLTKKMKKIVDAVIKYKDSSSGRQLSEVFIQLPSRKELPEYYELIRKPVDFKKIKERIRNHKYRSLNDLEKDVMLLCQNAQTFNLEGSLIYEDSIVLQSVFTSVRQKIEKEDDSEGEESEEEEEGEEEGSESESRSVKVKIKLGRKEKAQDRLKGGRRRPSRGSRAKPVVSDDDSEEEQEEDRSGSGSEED
T1 sequence (P51531 whole entry): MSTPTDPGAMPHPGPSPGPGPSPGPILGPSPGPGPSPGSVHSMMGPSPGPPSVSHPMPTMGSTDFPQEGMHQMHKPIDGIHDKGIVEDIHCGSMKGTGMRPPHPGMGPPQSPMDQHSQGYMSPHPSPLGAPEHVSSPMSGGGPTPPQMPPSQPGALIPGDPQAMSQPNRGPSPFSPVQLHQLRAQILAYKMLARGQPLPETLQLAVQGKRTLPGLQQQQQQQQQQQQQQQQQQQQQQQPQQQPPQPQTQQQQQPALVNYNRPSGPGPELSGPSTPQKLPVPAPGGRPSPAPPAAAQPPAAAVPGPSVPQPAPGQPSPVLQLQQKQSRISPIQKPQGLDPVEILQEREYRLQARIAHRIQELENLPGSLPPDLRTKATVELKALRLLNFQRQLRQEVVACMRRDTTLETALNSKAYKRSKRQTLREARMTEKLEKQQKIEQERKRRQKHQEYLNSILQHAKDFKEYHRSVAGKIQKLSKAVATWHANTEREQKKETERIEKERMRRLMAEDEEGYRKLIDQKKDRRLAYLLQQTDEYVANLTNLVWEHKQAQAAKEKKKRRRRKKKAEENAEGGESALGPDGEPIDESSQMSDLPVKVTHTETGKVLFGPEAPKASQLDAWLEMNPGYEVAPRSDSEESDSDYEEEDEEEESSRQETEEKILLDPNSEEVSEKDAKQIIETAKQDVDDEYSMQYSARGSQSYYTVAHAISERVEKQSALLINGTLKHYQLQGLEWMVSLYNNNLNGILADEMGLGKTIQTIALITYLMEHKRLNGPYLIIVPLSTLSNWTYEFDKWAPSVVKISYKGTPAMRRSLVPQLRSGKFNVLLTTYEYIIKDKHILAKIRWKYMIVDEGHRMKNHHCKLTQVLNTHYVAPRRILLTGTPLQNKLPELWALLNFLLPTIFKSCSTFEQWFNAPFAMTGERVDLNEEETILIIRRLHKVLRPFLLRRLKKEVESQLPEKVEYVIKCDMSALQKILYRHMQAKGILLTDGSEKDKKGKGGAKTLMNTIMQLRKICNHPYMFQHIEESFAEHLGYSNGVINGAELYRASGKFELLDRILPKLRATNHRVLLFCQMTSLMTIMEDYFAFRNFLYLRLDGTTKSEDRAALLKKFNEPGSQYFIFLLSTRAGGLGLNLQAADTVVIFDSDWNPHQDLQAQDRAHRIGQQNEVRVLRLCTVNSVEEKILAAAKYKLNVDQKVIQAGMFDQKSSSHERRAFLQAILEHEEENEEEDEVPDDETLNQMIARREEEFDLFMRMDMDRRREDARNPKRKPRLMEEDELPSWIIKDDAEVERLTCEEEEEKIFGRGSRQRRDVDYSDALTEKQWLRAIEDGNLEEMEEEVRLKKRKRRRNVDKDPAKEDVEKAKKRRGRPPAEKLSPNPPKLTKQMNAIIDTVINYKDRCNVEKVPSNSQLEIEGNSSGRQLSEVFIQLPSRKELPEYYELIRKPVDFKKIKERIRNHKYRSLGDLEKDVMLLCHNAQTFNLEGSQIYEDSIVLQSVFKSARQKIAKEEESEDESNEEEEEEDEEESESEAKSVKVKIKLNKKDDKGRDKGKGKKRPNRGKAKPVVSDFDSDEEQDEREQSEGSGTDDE

| Dmax (SMARCA2 [1]) | DC50 (SMARCA2 [1]) | Selectivity in MV411 (SMARCA2 [1]) | Dmax (SMARCA2 [2]) | DC50 (SMARCA2 [2]) | Dmax (SMARCA4) | DC50 (SMARCA4) | SMARCA2 MSD MV411 degradation 24 h: average Dmax % (SMARCA2 [1]) | SMARCA2 MSD A549 degradation 24 h: Average Dmax % (SMARCA2 [2]) | SMARCA4 MSD MV411 degradation 24 h: average Dmax % (SMARCA4) | SMILES |
| --- | --- | --- | --- | --- | --- | --- | --- | --- | --- | --- |
|  | 1 to 10 nM | B (B (>100-500 fold)) |  | < 10 nM |  | > 100 nM | B (B (>70-90% degradation)) | A (A (>90% degradation)) | C (C (50-70% degradation)) | C#Cc1ccc(CNC(=O)[C@@H]2C[C@@H](O)CN2C(=O)[C@@H](NC(=O)[C@H]2CCC3(CC2)C[C@H](N2CCC(c4cnc(N5CCN6c7cc(-c8ccccc8O)nnc7NC[C@H]6C5)nc4)CC2)C3)C(C)(C)C)c(Cl)c1 (single isomer, unassigned) [I-99] |
| 70 to 90% | 10 to 100 nM | B (B (>100-500 fold)) | > 90% | > 100 nM | < 50% | > 100 nM |  |  |  | C#Cc1ccc(CNC(=O)[C@@H]2C[C@@H](O)CN2C(=O)[C@@H](NC(=O)CN2CC3(CC(N4CCC(N5CCC(N6CCN7c8cc(-c9ccccc9O)nnc8NC[C@H]7C6)CC5)CC4)C3)C2)C(C)(C)C)cc1 [I-214, (2S,4R)—N-(4-ethynylbenzyl)-4-hydroxy-1-((S)-2-(2-(6-(4-((S)-2-(2-hydroxyphenyl)-6a,7,9,10-tetrahydro-5H-pyrazino[1′,2′:4,5]pyrazino[2,3-c]pyridazin-8(6H)-yl)-[1,4′-bipiperidin]-1′-yl)-2-azaspiro[3.3]heptan-2-yl)acetamido)-3,3-dimethylbutanoyl)pyrrolidine-2-carboxamide] |
| 70 to 90% | 10 to 100 nM | D (D (<10 fold)) | > 90% | > 100 nM | > 90% | > 100 nM |  |  |  | C#Cc1ccc(CNC(=O)[C@@H]2C[C@@H](O)CN2C(=O)[C@@H](NC(=O)N2CCN(CC3CCN(c4cnc(N5CCc6[nH]c7nnc(-c8ccccc8O)cc7c6[C@@H]5C)nc4)CC3)CC2)C(C)(C)C)cc1 [I-160] |
|  | 1 to 10 nM | C (C (10-100 fold)) |  | 10 to 50 nM |  | > 100 nM |  |  |  | C#Cc1ccc([C@H](C)NC(=O)[C@@H]2C[C@@H](O)CN2C(=O)[C@@H](NC(=O)[C@H]2CC3(C2)C[C@H](c2cnc(N4CCC(N5CCN6c7cc(-c8ccccc8O)nnc7NC[C@H]6C5)CC4)nc2)C3)C(C)(C)C)cc1 (stereo partly drawn) [I-363] |
| > 90% | 1 to 10 nM | C (C (10-100 fold)) | > 90% | 10 to 50 nM | 50 to 70% | > 100 nM |  |  |  | C#Cc1ccc(CNC(=O)[C@@H]2C[C@@H](O)CN2C(=O)[C@@H](NC(=O)N2CCN(C3CC4(CCN(c5cnc(N6CCN7c8cc(-c9ccccc9O)nnc8NC[C@H]7C6)nc5)CC4)C3)CC2)C(C)(C)C)cc1 [I-284] |
| 50 to 70% | 10 to 100 nM | C (C (10-100 fold)) | > 90% | > 100 nM | < 50% | > 100 nM |  |  |  | C#Cc1ccc(C2(NC(=O)[C@@H]3C[C@@H](O)CN3C(=O)[C@@H](NC(=O)N3CC4(CC(N5CCC(N6CCC(N7CCc8[nH]c9nnc(-c%10ccccc%10O)cc9c8[C@H]7C)CC6)CC5)C4)C3)C(C)(C)C)CC2)cc1 [I-210] |
| > 90% | 1 to 10 nM | D (D (<10 fold)) | > 90% | > 100 nM | > 90% | 10 to 100 nM |  |  |  | C#Cc1ccc(CNC(=O)[C@@H]2C[C@@H](O)CN2C(=O)[C@@H](NC(=O)[C@H]2CC3(C2)C[C@H](N2CCN(C(=O)CN4CCN5c6cc(-c7ccccc7O)nnc6NC[C@H]5C4)CC2)C3)C(C)(C)C)cc1 (single isomer, unassigned) [I-239] |
| 70 to 90% | 1 to 10 nM | C (C (10-100 fold)) | > 90% | 10 to 50 nM | 70 to 90% | > 100 nM |  |  |  | C#Cc1ccc(CNC(=O)[C@@H]2C[C@@H](O)CN2C(=O)[C@@H](NC(=O)N2CC3(CC(N4CCC(c5cnc(N6CCc7[nH]c8nnc(-c9ccccc9O)cc8c7[C@H]6CO)nc5)CC4)C3)C2)C(C)(C)C)c(Cl)c1 [I-318] |

Second part, the molecule before the results:

| SMILES | Dmax (SMARCA2 [1]) | DC50 (SMARCA2 [1]) | Selectivity in MV411 (SMARCA2 [1]) | Dmax (SMARCA2 [2]) | DC50 (SMARCA2 [2]) | Dmax (SMARCA4) | DC50 (SMARCA4) | SMARCA2 MSD MV411 degradation 24 h: average Dmax % (SMARCA2 [1]) | SMARCA2 MSD A549 degradation 24 h: Average Dmax % (SMARCA2 [2]) | SMARCA4 MSD MV411 degradation 24 h: average Dmax % (SMARCA4) |
| --- | --- | --- | --- | --- | --- | --- | --- | --- | --- | --- |
| C#Cc1ccc(CNC(=O)[C@@H]2C[C@@H](O)CN2C(=O)[C@@H](NC(=O)[C@H]2CC3(C2)C[C@H](c2cnc(N4CCC(N5CCN6c7cc(-c8ccccc8O)nnc7NC[C@H]6C5)CC4)nc2)C3)C(C)(C)C)cc1 (single isomer, unassigned) [I-301] | > 90% | 1 to 10 nM | C (C (10-100 fold)) | > 90% | 10 to 50 nM | > 90% | 10 to 100 nM |  |  |  |
| CC(C)(C)[C@H](NC(=O)[C@H]1CCC2(CC1)C[C@H](N1CCC(c3cnc(N4CCN5c6cc(-c7ccccc7O)nnc6NC[C@H]5C4)nc3)CC1)C2)C(=O)N1C[C@H](O)C[C@H]1C(=O)NCC#Cc1ccc(Cl)cc1 (single isomer, unassigned) [I-101] | < 50% | > 100 nM | C (C (10-100 fold)) | 50 to 70% | > 100 nM | < 50% | > 100 nM |  |  |  |
| C#Cc1ccc(CNC(=O)[C@@H]2C[C@@H](O)CN2C(=O)[C@@H](NC(=O)[C@H]2CCC3(CC2)C[C@H](N2CCC(N4CC5(CC(N6CCN7c8cc(-c9ccccc9O)nnc8NC[C@H]7C6)C5)C4)CC2)C3)C(C)(C)C)c(Cl)c1 (single isomer, unassigned) [I-220] | 70 to 90% | 10 to 100 nM | B (B (>100-500 fold)) | > 90% | > 100 nM | < 50% | > 100 nM |  |  |  |
| C#Cc1ccc2c(c1)OCC[C@@H]2NC(=O)[C@@H]1C[C@@H](O)CN1C(=O)[C@@H](NC(=O)N1CC2(CC(N3CCC(c4cnc(N5CCc6[nH]c7nnc(-c8ccccc8O)cc7c6[C@H]5C)nc4)CC3)C2)C1)C(C)(C)C (single isomer, unassigned) [I-235] | < 50% | > 100 nM | D (D (<10 fold)) | 50 to 70% | > 100 nM | < 50% | > 100 nM |  |  |  |
| C#Cc1ccc(CNC(=O)[C@@H]2C[C@@H](O)CN2C(=O)[C@@H](NC(=O)CCCN2CCC(N3CC4(CC(N5CCN6c7cc(-c8ccccc8O)nnc7NC[C@H]6C5)C4)C3)CC2)C(C)(C)C)cc1 (single isomer, unassigned) [I-244] | > 90% | 10 to 100 nM | C (C (10-100 fold)) | > 90% | > 100 nM | 50 to 70% | > 100 nM |  |  |  |
| Cc1ncsc1-c1ccc(CNC(=O)[C@@H]2C[C@@H](O)CN2C(=O)C(c2cc(N3CCC(CCN4CCC(c5cnc(N6CCc7[nH]c8nnc(-c9ccccc9O)cc8c7[C@@H]6C)nc5)CC4)CC3)no2)C(C)C)cc1 (single isomer, unassigned) [I-8] | 70 to 90% | 1 to 10 nM | D (D (<10 fold)) | > 90% | 10 to 50 nM | 70 to 90% | 10 to 100 nM |  |  |  |
| C#Cc1ccc(CNC(=O)[C@@H]2C[C@@H](O)CN2C(=O)[C@@H](NC(=O)N2CC3(CC(CN4CCC(N5CCC(N6CCc7[nH]c8nnc(-c9ccccc9O)cc8c7[C@H]6C)CC5)CC4)C3)C2)C(C)(C)C)cc1 [I-190] | 50 to 70% | 10 to 100 nM | C (C (10-100 fold)) | > 90% | > 100 nM | 50 to 70% | > 100 nM |  |  |  |
| Cc1ncsc1-c1ccc(CNC(=O)[C@@H]2C[C@@H](O)CN2C(=O)C(c2cc(OC[C@H]3CC[C@@H](N4CCC(c5cnc(N6CCc7[nH]c8nnc(-c9ccccc9O)cc8c7[C@@H]6C)nc5)CC4)CC3)no2)C(C)C)cc1 (single isomer, unassigned) [I-16] | > 90% | 1 to 10 nM | D (D (<10 fold)) | 70 to 90% | 50 to 100 nM | 70 to 90% | 10 to 100 nM |  |  |  |
| C#Cc1ccc(CNC(=O)[C@@H]2C[C@@H](O)CN2C(=O)[C@@H](NC(=O)[C@H]2CC3(CC[C@H](N4CCN(c5cnc(N6CCc7[nH]c8nnc(-c9ccccc9O)cc8c7[C@H]6C)nc5)CC4)CC3)C2)C(C)(C)C)cc1 (single isomer, unassigned) [I-300] |  | 10 to 100 nM | C (C (10-100 fold)) |  | > 100 nM |  | > 100 nM | B (B (>70-90% degradation)) | A (A (>90% degradation)) | D (D (<50% degradation)) |
| Cc1ncsc1-c1ccc(CNC(=O)[C@@H]2C[C@@H](O)CN2C(=O)[C@@H](NC(=O)[C@H]2CC3(C2)C[C@H](N2CCN(c4cnc(N5CCc6[nH]c7nnc(-c8ccccc8O)cc7c6[C@H]5C)nc4)CC2)C3)C(C)(C)C)cc1 (single isomer, unassigned) [I-77] |  | 1 to 10 nM | C (C (10-100 fold)) |  | 10 to 50 nM |  | > 100 nM | B (B (>70-90% degradation)) | A (A (>90% degradation)) | D (D (<50% degradation)) |

From US20250170248A1, “SMARCA DEGRADERS AND USES THEREOF” (Kymera Therapeutics, Inc., priority 2021, published 2025)
